Experimental findings from patent publication US9090628B2, “Benzoxazepin compounds selective for PI3K P110 delta and methods of use” (GENENTECH, INC., priority 2011, dated 2015) are described below.

Usually IC50 stands for the point on the concentration scale where inhibition reaches its midpoint. Low values mean higher potency, high ones lower potency.

The target of experiment [1] is p110 alpha (Homo sapiens (Human), UniProt P42336). Briefly: PI3K isoform inhibition assay, p110 alpha (for alpha/delta selectivity). Conditions: ratio of biochemical IC50 values. On the procedure:
(§1) PI3K enzymatic activity was assayed by measuring the amount of product phosphatidylinositol 3,4,5-phosphate (PIP3) formed from substrate 4,5 phosphatidylinositol 4,5-phosphate (PIP2) using a fluorescence polarization displacement assay. The decrease in fluorescence polarization of a fluorescent PIP3 probe is measured as it is displaced from a PIP3-binding protein GRP-1 detector by PI3K-catalyzed product. […] The kinase reactions were initiated by the addition of 40 ng/mL p110α/p85α, 300 ng/mL p110β/p85α, 40 ng/mL p110γ, or 40 ng/mL p110δ/p85α (Upstate Group, Millipore; Dundee, UK), and 10 μM PIP2 (Echelon Biosciences) to the wells. […] After 60 minutes of incubation at room temperature to allow equilibration of labeled and unlabeled PIP3 binding, the parallel and perpendicular components of the fluorescence emissions from each sample were measured at an excitation wavelength of 530 nm and an emission wavelength of 590 nm using an Envision fluorescent plate reader with a rhodamine filter (PerkinElmer Life and Analytical Sciences; Wellesley, Mass.). The assay is capable of detecting 0.1-2.0 μM PIP3 product. The IC50 values were obtained by fitting the dose-dependent inhibition data to a 4-parameter equation using Assay Explorer software (MDL, San Ramon, Calif.).
The same protocol may be used to establish IC50 values for p110α (alpha) PI3K binding.
(§2) The four Class I PI 3-kinases are cloned into baculovirus vectors as follows: […]

The target in experiment [2] is p110 delta (Homo sapiens (Human), UniProt O00329). The experiment in a line: PI3K isoform inhibition assay, p110 delta (fluorescence polarization displacement). It counts as biochemical. On the procedure: as §1
The Formula I compound was serially diluted in 100% DMSO. The kinase reaction was incubated for 1 h at room temperature, and the reaction was terminated by the addition of PBS. IC50 values were subsequently determined using sigmoidal dose-response curve fit (variable slope).
as §2
(In general: Polarisation of emitted light reports the rotation of a fluorescent probe.)

The structures appear in SMILES notation.

p110 delta, sequence (O00329 whole entry, canonical isoform): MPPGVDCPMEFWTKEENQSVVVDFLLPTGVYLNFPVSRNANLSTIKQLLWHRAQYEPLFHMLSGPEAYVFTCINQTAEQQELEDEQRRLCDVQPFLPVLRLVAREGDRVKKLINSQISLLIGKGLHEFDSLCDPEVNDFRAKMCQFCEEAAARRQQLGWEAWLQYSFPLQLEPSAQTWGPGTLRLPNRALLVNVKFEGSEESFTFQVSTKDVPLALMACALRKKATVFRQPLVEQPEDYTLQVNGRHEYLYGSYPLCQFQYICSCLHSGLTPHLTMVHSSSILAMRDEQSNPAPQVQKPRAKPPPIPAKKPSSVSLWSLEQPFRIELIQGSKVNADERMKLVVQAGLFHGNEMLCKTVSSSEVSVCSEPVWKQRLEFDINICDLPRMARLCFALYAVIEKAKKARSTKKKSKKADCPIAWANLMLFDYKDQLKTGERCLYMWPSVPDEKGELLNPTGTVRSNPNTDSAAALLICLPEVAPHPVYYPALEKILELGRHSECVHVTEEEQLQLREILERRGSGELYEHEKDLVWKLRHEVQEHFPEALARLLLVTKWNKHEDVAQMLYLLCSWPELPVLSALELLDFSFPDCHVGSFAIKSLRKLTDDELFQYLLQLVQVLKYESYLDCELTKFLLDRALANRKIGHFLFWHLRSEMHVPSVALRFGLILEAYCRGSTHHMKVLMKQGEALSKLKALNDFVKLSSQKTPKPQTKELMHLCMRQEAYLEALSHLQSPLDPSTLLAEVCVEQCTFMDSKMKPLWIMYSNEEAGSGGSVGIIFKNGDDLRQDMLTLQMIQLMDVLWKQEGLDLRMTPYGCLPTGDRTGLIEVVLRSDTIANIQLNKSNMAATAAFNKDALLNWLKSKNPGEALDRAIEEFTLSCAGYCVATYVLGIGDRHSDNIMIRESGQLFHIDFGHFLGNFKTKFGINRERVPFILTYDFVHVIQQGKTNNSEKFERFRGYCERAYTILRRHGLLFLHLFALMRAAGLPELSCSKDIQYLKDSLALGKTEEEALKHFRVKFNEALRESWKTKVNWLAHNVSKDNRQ
p110 delta, sequence (P27986 whole entry partner, canonical isoform): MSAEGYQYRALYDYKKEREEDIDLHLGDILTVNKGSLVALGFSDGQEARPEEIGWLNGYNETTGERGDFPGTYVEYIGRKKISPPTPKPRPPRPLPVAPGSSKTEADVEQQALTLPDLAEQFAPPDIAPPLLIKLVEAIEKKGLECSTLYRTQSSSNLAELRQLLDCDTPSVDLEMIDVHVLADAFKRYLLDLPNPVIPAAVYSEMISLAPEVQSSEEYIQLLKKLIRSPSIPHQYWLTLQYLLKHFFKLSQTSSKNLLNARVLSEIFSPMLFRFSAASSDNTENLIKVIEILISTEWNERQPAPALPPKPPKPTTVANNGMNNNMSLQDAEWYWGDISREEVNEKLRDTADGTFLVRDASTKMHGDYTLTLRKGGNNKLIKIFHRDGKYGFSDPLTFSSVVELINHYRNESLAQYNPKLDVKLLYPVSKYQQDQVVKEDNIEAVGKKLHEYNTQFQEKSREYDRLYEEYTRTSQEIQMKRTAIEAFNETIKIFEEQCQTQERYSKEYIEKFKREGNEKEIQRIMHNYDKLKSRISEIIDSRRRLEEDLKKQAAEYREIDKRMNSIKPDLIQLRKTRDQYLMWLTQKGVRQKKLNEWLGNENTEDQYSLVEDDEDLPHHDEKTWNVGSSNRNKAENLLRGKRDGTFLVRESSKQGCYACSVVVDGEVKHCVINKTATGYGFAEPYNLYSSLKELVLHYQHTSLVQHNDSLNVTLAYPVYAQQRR
p110 alpha, sequence (P42336 whole entry, canonical isoform): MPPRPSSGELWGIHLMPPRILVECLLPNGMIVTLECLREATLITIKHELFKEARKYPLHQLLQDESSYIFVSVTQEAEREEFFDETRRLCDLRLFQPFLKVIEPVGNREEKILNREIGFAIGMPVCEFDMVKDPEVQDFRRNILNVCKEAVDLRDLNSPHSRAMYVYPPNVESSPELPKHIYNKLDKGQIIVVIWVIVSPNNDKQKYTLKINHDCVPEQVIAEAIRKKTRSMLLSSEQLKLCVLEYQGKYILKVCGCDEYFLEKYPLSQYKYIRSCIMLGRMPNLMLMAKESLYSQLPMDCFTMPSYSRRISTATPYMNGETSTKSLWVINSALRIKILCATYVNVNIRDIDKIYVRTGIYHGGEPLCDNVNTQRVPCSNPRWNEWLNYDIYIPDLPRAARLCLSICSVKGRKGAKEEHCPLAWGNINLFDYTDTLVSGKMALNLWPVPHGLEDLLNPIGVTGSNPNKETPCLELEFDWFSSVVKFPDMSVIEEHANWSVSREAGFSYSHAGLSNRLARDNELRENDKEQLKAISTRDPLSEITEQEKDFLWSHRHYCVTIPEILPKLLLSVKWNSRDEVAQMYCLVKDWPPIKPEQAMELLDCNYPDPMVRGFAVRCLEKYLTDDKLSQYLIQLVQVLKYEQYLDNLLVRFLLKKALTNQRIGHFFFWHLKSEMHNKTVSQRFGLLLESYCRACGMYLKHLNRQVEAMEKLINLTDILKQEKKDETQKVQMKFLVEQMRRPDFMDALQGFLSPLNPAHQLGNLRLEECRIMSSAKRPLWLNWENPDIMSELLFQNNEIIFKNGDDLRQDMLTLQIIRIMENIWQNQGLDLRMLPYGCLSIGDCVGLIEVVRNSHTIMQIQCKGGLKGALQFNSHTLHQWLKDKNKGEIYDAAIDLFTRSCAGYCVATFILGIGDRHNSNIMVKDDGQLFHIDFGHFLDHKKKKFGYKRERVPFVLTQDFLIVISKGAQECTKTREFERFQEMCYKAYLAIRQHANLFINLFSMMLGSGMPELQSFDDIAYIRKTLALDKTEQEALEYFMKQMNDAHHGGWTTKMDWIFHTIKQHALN
p110 alpha, sequence (P27986 whole entry partner, canonical isoform): as the sequence (P27986 whole entry partner, canonical isoform) above

For the molecule `Cc1nc(-c2cn3c(n2)-c2ccc(N4CCCC45CCCN(C)C5)cc2OCC3)n(C(C)C)n1` (stereo not shown) [Example 318, 2-(2-isopropyl-5-methyl-1,2,4-triazol-3-yl)-9-(7-methyl-1,7-diazaspiro[4.5]decan-1-yl)-5,6-dihydroimidazo[1,2-d][1,4]benzoxazepine], the “IC50 p110 alpha/IC50 p110 delta” value in experiment [1] is 29.4. For the same molecule, in experiment [2], the IC50 amounted to 0.178 nM.
In the same order, the values of `Cc1nc(-c2cn3c(n2)-c2ccc(N4CCCC4C4CCCN(C)C4)cc2OCC3)n(C(C)C)n1` (stereo not shown) [Example 319, 2-(2-isopropyl-5-methyl-1,2,4-triazol-3-yl)-9-[2-(1-methyl-3-piperidyl)pyrrolidin-1-yl]-5,6-dihydroimidazo[1,2-d][1,4]benzoxazepine] are 26.3 and 2.81 nM.
In the same order, the values of `Cc1nc(-c2cn3c(n2)-c2ccc(N4CCCC45CCCN(C)C5)cc2OCC3)n(C(C)C)n1` (stereo not shown) [Example 320, 2-(2-isopropyl-5-methyl-1,2,4-triazol-3-yl)-9-(7-methyl-1,7-diazaspiro[4.5]decan-1-yl)-5,6-dihydroimidazo[1,2-d][1,4]benzoxazepine] are 54.6 and 0.236 nM.
In the same order, the values of `Cc1nc(-c2cn3c(n2)-c2ccc(N4CCCC4C4CCCN(C)C4)cc2OCC3)n(C(C)C)n1` (stereo not shown) [Example 321, 2-(2-isopropyl-5-methyl-1,2,4-triazol-3-yl)-9-[2-(1-methyl-3-piperidyl)pyrrolidin-1-yl]-5,6-dihydroimidazo[1,2-d][1,4]benzoxazepine] are 22.1 and 2.52 nM.
Regarding `Cc1nc(-c2cn3c(n2)-c2ccc(N4CCCC4C4CCCN(C)C4)cc2OCC3)n(C(C)C)n1` (stereo not shown) [Example 322, 2-(2-isopropyl-5-methyl-1,2,4-triazol-3-yl)-9-[2-(1-methyl-3-piperidyl)pyrrolidin-1-yl]-5,6-dihydroimidazo[1,2-d][1,4]benzoxazepine], the “IC50 p110 alpha/IC50 p110 delta” value in experiment [1] amounted to 31.9. In experiment [2], this molecule gave an IC50 of 5.68 nM.
In the same order, the values of `Cc1nc(-c2cn3c(n2)-c2ccc(N4CCCC4C4CCCCN4C)cc2OCC3)n(C(C)C)n1` (stereo not shown) [Example 323, 2-(2-isopropyl-5-methyl-1,2,4-triazol-3-yl)-9-[2-(1-methyl-2-piperidyl)pyrrolidin-1-yl]-5,6-dihydroimidazo[1,2-d][1,4]benzoxazepine] are 11.7 and 1.94 nM.
In the same order, the values of `Cc1nc(-c2cn3c(n2)-c2ccc(N4CCCC4C4CCCCN4C)cc2OCC3)n(C(C)C)n1` (stereo not shown) [Example 324, 2-(2-isopropyl-5-methyl-1,2,4-triazol-3-yl)-9-[2-(1-methyl-2-piperidyl)pyrrolidin-1-yl]-5,6-dihydroimidazo[1,2-d][1,4]benzoxazepine] are 15 and 139 nM.
In the same order, the values of `Cc1nc(-c2cn3c(n2)-c2ccc(N4CCC[C@H]4CN4CCCC4)cc2OCC3)n(C(C)C)n1` [Example 325, (S)-2-(1-isopropyl-3-methyl-1H-1,2,4-triazol-5-yl)-9-(2-(pyrrolidin-1-ylmethyl)pyrrolidin-1-yl)-5,6-dihydrobenzo[f]imidazo[1,2-d][1,4]oxazepine] are 20.2 and 0.313 nM.
For the molecule `Cc1nc(-c2cn3c(n2)-c2ccc(N4CCC[C@@H]4CN4CCCC4)cc2OCC3)n(C(C)C)n1` [Example 326, (R)-2-(1-isopropyl-3-methyl-1H-1,2,4-triazol-5-yl)-9-(2-(pyrrolidin-1-ylmethyl)pyrrolidin-1-yl)-5,6-dihydrobenzo[f]imidazo[1,2-d][1,4]oxazepine], the “IC50 p110 alpha/IC50 p110 delta” value in experiment [1] is 52.9. Also, in experiment [2], the IC50 stood at 0.416 nM.
In the same order, the values of `CC(C)n1nc(N)nc1-c1cn2c(n1)-c1ccc(-c3ccnn3C3CCN(C(C)(C)C)CC3)cc1OCC2` [Example 327, 5-[9-[2-(1-tert-butyl-4-piperidyl)pyrazol-3-yl]-5,6-dihydroimidazo[1,2-d][1,4]benzoxazepin-2-yl]-1-isopropyl-1,2,4-triazol-3-amine] are 20.8 and 3.89 nM.
In the case of `Cc1nc(-c2cn3c(n2)-c2cc(C(C)N4CCN(C(C)(C)C)CC4)c(F)cc2OCC3)n(C(C)C)n1` (stereo not shown) [Example 328, 10-[1-(4-tert-butylpiperazin-1-yl)ethyl]-9-fluoro-2-(2-isopropyl-5-methyl-1,2,4-triazol-3-yl)-5,6-dihydroimidazo[1,2-d][1,4]benzoxazepine], the “IC50 p110 alpha/IC50 p110 delta” value in experiment [1] was determined as 109. Also, the IC50 in experiment [2] amounted to 2.29 nM.
In the same order, the values of `Cc1nc(-c2cn3c(n2)-c2cc([C@@H](C)N4CCN(C(C)C)CC4)c(C)cc2OCC3)n(C(C)C)n1` [Example 331, (R)-2-(1-isopropyl-3-methyl-1H-1,2,4-triazol-5-yl)-10-(1-(4-isopropylpiperazin-1-yl)ethyl)-9-methyl-5,6-dihydrobenzo[f]imidazo[1,2-d][1,4]oxazepine] are 104 and 0.865 nM.
In the same order, the values of `Cc1nc(-c2cn3c(n2)-c2cc([C@H](C)N4CCN(C(C)C)CC4)c(C)cc2OCC3)n(C(C)C)n1` [Example 332, (S)-2-(1-isopropyl-3-methyl-1H-1,2,4-triazol-5-yl)-10-(1-(4-isopropylpiperazin-1-yl)ethyl)-9-methyl-5,6-dihydrobenzo[f]imidazo[1,2-d][1,4]oxazepine] are 13 and 0.678 nM.
With `CCN(CC)C1CCOC(c2c(-c3ccc4c(c3)OCCn3cc(-c5nc(C)nn5C(C)C)nc3-4)cnn2C)C1` (stereo not shown) [Example 333, N,N-diethyl-2-[4-[2-(2-isopropyl-5-methyl-1,2,4-triazol-3-yl)-5,6-dihydroimidazo[1,2-d][1,4]benzoxazepin-9-yl]-2-methyl-pyrazol-3-yl]tetrahydropyran-4-amine], in experiment [1], the “IC50 p110 alpha/IC50 p110 delta” value is reported as 27.2. In experiment [2], this molecule came in with a half-maximal inhibitory concentration (IC50) of 2.37 nM.
In the same order, the values of `Cc1nc(-c2cn3c(n2)-c2cc([C@@H](C)N4CCN(CC(C)(C)O)CC4)c(F)cc2OCC3)n(C(C)C)n1` [Example 334, (R)-1-(4-(1-(9-fluoro-2-(1-isopropyl-3-methyl-1H-1,2,4-triazol-5-yl)-5,6-dihydrobenzo[f]imidazo[1,2-d][1,4]oxazepin-10-yl)ethyl)piperizan-1-yl)-2-methylpropan-2-ol] are 17.3 and 10.5 nM.
In the same order, the values of `Cc1nc(-c2cn3c(n2)-c2ccc(-c4cnn(C)c4C4CC(N(C)C(C)C)CCO4)cc2OCC3)n(C(C)C)n1` (stereo not shown) [Example 335, N-isopropyl-2-[4-[2-(2-isopropyl-5-methyl-1,2,4-triazol-3-yl)-5,6-dihydroimidazo[1,2-d][1,4]benzoxazepin-9-yl]-2-methyl-pyrazol-3-yl]-N-methyl-tetrahydropyran-4-amine] are 96.5 and 2.27 nM.
In the same order, the values of `Cc1nc(-c2cn3c(n2)-c2cc([C@H](C)N4CCN(CC(C)(C)O)CC4)c(F)cc2OCC3)n(C(C)C)n1` [Example 336, (S)-1-(4-(1-(9-fluoro-2-(1-isopropyl-3-methyl-1H-1,2,4-triazol-5-yl)-5,6-dihydrobenzo[f]imidazo[1,2-d][1,4]oxazepin-10-yl)ethyl)piperazin-1-yl)-2-methylpropan-2-ol] are 27 and 26.8 nM.
